These results are taken from US8101619B2, “Phenylpiperazine derivatives with a combination of partial dopamine-D2 receptor agonism and serotonin reuptake inhibition” (Solvay Pharmaceuticals B.V., priority 2004, dated 2012).

Molecules are shown by their SMILES. Counter-ions that a name gives are not always drawn.

For orientation: melting point means the temperature of the solid-liquid transition.

In series [1] the target is T1, Human dopamine D2,L receptors (Homo sapiens, UniProt P14416).
T1 construct: host or cells: CHO-K1
As to the kind of experiment: Inhibition of forskolin-induced [3H]-cAMP accumulation in CHO-K1 cells. In kind it is cell-based. As to conditions: cloned human dopamine D2,L receptors in CHO-K1 cells; full agonist ε=1, full antagonist ε=0. The protocol:
Inhibition of Forskolin-Induced [^3H]-cAMP Accumulation
The in vitro functional activity at dopamine-D2 receptors, including the intrinsic activity (ε) of the compounds of the invention was measured by their ability to inhibit forskolin-induced [^3H]-cAMP accumulation.
Human dopamine D2,L receptors were cloned in fibroblast cell line CHO-K1 cells and obtained from Dr. Grandy, Vollum Institute, Portland, Oreg., USA. CHO cells were grown in a Dulbecco's modified Eagle's medium (DMEM) culture medium, supplemented with 10% heat-inactivated fetal calf serum, 2 mM glutamine, 1 mM pyruvate, 5000 units/ml penicillin, 5000 μg/ml streptomycin and 200 μg/ml G-418 at 37° C. in 93% air/7% CO2. For incubation with test compounds, confluent cultures grown in 24 wells plates were used. Each condition or substance was routinely tested in quadruplicate. Cells were loaded with 1 μCi [^3H]-adenine in 0.5 ml medium/well. After 2 hours, cultures were washed with 0.5 ml PBS containing 1 mM of the phosphodiesterase inhibitor isobutylmethylxanthine (IBMX) and incubated for 20 min with 0.5 ml PBS containing 1 mM IBMX and forskolin with or without test compound. After aspiration the reaction was stopped with 1 ml trichloroacetic acid 5% (w/v). […] 0.8 ml Extract was passed over Dowex (50WX-4 200-400 mesh) and aluminumoxide columns, eluted with water and 0.1M imidazole (pH=7.5). Eluates were mixed with 7 ml Insta-gel and radioactivity was counted with a liquid scintillation counter. The conversion of [^3H]-ATP into [^3H]-cAMP was expressed as the ratio in percentage radioactivity in the cAMP fraction as compared to combined radioactivity in both cAMP and ATP fractions, and basal activity was subtracted to correct for spontaneous activity.
Test compounds were obtained as 10 mM stock solutions in 100% DMSO, and diluted in PBS/IBMX to final concentrations. Typically, compounds were used in concentrations that ranged from 10^−10M to 10^−5M. From quadruplicate data counts, the mean was taken as an estimate for drug-induced, receptor-mediated effects at specified second messenger accumulation, expressed as percentage of control values (forskolin-stimulated cAMP accumulation, subtracted by basal activity). By using the non-linear curve-fitting program INPLOT or the Excel-add-in XL-Fit, mean values were plotted against drug concentration (in molar) and a sigmoid curve (four-parameter logistic curve) was constructed. The maximal forskolin-induced stimulated conversion is taken as maximum value and the maximal inhibition (usually at drug concentrations 10^−6 M or 10^−5 M) as minimum and these values were fixed during the fitting process. Thus, concentrations of the compound, causing 50% of the maximally obtained inhibition of forskolin-induced cAMP accumulation (EC50), are averaged over several experiments and presented as mean pEC50±SEM. Antagonist potency is assessed by co-incubating cells with a fixed agonist concentration and specified antagonist concentrations. Curve fitting procedures are identical to those used for estimating EC50 values. Thus IC50 values, i.e. the concentration that is able to achieve 50% of maximal antagonism that can be achieved by this compound. IC50 values are corrected using a Cheng-Prussoff equation, correcting it for agonist concentration and EC50 values that is obtained in the same experiment. Thus, Kb=IC50/(1+[agonist]/EC50, agonist). The corresponding pA2 value is −log (Kb). Concentration-response curve fitting allows estimation of pEC50 values and of maximal achievable effect (intrinsic activity or efficacy (ε). A full receptor agonist has ε=1, a full receptor antagonist has ε=0, and a partial receptor agonist has an intermediate intrinsic activity.
(In general: Changes in cAMP serve as a functional read-out for many G protein-coupled receptors.)

Series [2] concerns the target T2, dopamine-D2 receptors (Rattus norvegicus, UniProt P61169).
T2 construct: labels dopamine receptors in rat pituitary and brain; from tissue
As to the kind of experiment: In vitro affinity for dopamine-D2 receptors ([3H]-spiroperidol receptor binding assay). As to conditions: read-out: Dopamine-D2 binding pKi (converted). The protocol:
In Vitro Affinity for Dopamine-D2 Receptors
Affinity of the compounds for dopamine-D2 receptors was determined using the receptor binding assay described by 1. Creese, R. Schneider and S. H. Snyder: “[^3H]-Spiroperidol labels dopamine receptors in rat pituitary and brain”, Eur. J. Pharmacol., 46, 377-381, 1977.

The target in series [3] is T3, serotonin reuptake sites (Rattus norvegicus, UniProt P31652).
T3 construct: from tissue
As to the kind of experiment: In vitro affinity for serotonin reuptake sites ([3H]-paroxetine binding assay). As to conditions: receptor binding; read-out: 5-HT reuptake binding pKi (converted). The method, then: In Vitro Affinity for Serotonin Reuptake Sites
Affinity of the compounds for serotonin reuptake sites was determined using the receptor binding assay described by E. Habert et al.: “Characterisation of [^3H]-paroxetine binding to rat cortical membranes”, Eur. J. Pharmacol., 118, 107-114, 1985.

T3 sequence (P31652 whole entry): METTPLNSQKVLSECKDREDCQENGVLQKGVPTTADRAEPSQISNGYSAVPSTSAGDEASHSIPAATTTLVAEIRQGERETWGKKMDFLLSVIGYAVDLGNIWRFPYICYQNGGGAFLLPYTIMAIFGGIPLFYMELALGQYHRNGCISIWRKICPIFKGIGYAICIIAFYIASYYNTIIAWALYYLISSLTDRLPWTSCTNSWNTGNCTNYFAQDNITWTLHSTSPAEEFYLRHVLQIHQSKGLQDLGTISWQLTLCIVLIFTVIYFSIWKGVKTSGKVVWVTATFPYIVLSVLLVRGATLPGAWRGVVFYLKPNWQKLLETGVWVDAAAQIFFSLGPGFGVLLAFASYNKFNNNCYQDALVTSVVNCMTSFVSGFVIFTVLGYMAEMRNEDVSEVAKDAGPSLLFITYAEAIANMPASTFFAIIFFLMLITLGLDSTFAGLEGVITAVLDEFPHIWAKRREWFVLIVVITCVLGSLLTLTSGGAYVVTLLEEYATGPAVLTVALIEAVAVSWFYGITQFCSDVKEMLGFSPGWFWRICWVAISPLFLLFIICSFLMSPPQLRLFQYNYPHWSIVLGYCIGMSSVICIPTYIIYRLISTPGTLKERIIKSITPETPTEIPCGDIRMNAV
T1 sequence (P14416 whole entry): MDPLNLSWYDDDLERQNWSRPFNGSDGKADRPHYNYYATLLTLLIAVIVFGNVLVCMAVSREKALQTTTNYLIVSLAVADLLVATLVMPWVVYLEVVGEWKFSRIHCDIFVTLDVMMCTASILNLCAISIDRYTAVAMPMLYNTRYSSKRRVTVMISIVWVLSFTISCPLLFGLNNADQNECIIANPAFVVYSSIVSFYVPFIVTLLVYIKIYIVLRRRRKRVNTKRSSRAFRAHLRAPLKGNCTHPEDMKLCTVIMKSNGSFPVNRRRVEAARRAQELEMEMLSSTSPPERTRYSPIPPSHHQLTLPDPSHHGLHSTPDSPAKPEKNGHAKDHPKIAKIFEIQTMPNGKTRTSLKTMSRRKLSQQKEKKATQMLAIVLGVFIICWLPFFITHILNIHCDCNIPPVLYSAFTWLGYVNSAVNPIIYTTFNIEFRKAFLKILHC
T2 sequence (P61169 whole entry): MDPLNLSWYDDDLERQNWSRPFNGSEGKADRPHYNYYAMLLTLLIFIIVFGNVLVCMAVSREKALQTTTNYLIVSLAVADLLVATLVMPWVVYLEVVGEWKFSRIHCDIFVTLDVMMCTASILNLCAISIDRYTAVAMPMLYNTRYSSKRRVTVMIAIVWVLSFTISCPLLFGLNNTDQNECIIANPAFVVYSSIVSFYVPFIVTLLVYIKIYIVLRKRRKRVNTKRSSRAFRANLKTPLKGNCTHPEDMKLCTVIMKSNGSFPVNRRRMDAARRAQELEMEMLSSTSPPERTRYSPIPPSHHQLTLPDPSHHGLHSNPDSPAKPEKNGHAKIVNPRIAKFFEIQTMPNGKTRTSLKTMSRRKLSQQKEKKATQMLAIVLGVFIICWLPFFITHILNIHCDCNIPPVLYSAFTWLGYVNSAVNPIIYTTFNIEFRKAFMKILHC

The molecule `CN(CCN1CCN(c2cccc3[nH]c(=O)oc23)CC1)c1cccc(C#N)c1` (as salt: HCl) [compound 14] yielded a melting point of 230 to 231 °C.

As for `N#Cc1cccc(OCCCCN2CCN(c3cccc4[nH]c(=O)oc34)CC2)c1` [compound 6], the melting point fell in the range of 165 to 168 °C. In series [1], the “Dopamine-D2 cAMP accum ε (intrinsic activity)” value (shortened to “Dopamine-D2 cAMP accum ε”) turned out to be 0.76. For the same molecule, the Ki in series [2] is 1 nM. Besides, in series [3], the Ki is 3.98 nM.

Take `CN(CCN1CCN(c2cccc3[nH]c(=O)oc23)CC1)c1cccc(C#N)c1` [compound 14]: in series [1], the “Dopamine-D2 cAMP accum ε” value came out at 0.57. In addition, the Ki in series [2] is 15.8 nM; in series [3], 1 nM.

`CN(CCCCN1CCN(c2cccc3c2oc(=O)n3C)CC1)c1cccc(C#N)c1` [compound 35] came in with a melting point of 87 to 89 °C. In series [1], the “Dopamine-D2 cAMP accum ε” value was determined as 0.55. Further, in series [2], the Ki is 100 nM. Besides, the Ki in series [3] is 0.631 nM.

`O=c1[nH]c2cccc(N3CCN(CCCCOc4cccc(F)c4)CC3)c2o1` [compound 9] returned a melting point of 153 to 155 °C. The “Dopamine-D2 cAMP accum ε” value in series [1] is on record as 0.64. Besides, the Ki in series [2] was 6.31 nM. The Ki in series [3] is 100 nM.

Take `N#Cc1cccc(OCCCN2CCN(c3cc(Cl)cc4[nH]c(=O)oc34)CC2)c1` [compound 26]: in series [1], the “Dopamine-D2 cAMP accum ε” value is recorded as 0.79. In addition, the Ki in series [2] and in series [3] was 10 nM each time.

Take `N#Cc1cccc(OCCCN2CCN(c3cc(Cl)cc4[nH]c(=O)oc34)CC2)c1` (as salt: HCl) [compound 26]: the melting point was 251 to 254 °C.

Consider `CN(CCCN1CCN(c2cccc3[nH]c(=O)oc23)CC1)c1cccc(C#N)c1` (as salt: HCl) [compound 15], for which the melting point was 195 to 196 °C.

Molecule `N#Cc1cccc(SCCCCN2CCN(c3cccc4[nH]c(=O)oc34)CC2)c1` (as salt: HCl) [compound 20] gave a melting point of 168 to 170 °C.

Molecule `COc1ccc(C#N)cc1OCCCN1CCN(c2cccc3[nH]c(=O)oc23)CC1` [compound 24] had a melting point of 189 to 190 °C. For the same molecule, the “Dopamine-D2 cAMP accum ε” value in series [1] is recorded as 0.86. For the same molecule, the Ki in series [2] is 1.26 nM. In series [3], the Ki is 12.6 nM.

`Cn1c(=O)oc2c(N3CCN(CCCCOc4cccc(F)c4)CC3)cccc21` [compound 31] yielded a melting point of 95 to 97 °C. Besides, the “Dopamine-D2 cAMP accum ε” value in series [1] was 0.56. The Ki in series [2] is 63.1 nM. The Ki in series [3] is 5.01 nM.

As for `N#Cc1cccc(SCCCCN2CCN(c3cccc4[nH]c(=O)oc34)CC2)c1` [compound 20], the “Dopamine-D2 cAMP accum ε” value in series [1] is 0.98. Besides, the figures for the Ki in series [2] and in series [3] were 3.98 nM and 3.16 nM, respectively.

For `CN(CCCN1CCN(c2cccc3[nH]c(=O)oc23)CC1)c1cccc(C#N)c1` [compound 15], the “Dopamine-D2 cAMP accum ε” value in series [1] is given as 0.61. Besides, the Ki in series [2] was 6.31 nM; in series [3] it was 0.794 nM.

The molecule `O=c1[nH]c2cccc(N3CCN(CCCOc4cccc(C(F)(F)F)c4)CC3)c2o1` [compound 17] registered a melting point of 140 to 142 °C. In addition, in series [1], the “Dopamine-D2 cAMP accum ε” value turned out to be 0.51. In addition, in series [2], the Ki was 25.1 nM. Moreover, the Ki in series [3] is 50.1 nM.
